Results: ChEMBL document CHEMBL5678800 (Mol Cancer Ther, 2009)
Activity calls are given as the source filed them. The calls are words filed in the database; no cut-off is given here.

Key:
GTL 16 cell line = experiment: Antiproliferative activity against human GTL 16 cell line assessed as inhibition of cell viability incubated for 72 hrs by 3H-thymidine incorporation assay; format: functional, cell-based
Rh41 [1] = experiment: Induction of cell cycle arrest in human Rh41 cells assessed as accumulation of cells at G2/M phase by measuring >4N DNA content at 10x IC50 incubated for 24 hrs by propidium iodide staining based flow cytometry analysis; format: functional
Rh41 [2] = experiment: Induction of cell cycle arrest in human Rh41 cells assessed as accumulation of cells at G2/M phase by measuring >4N DNA content at 10x IC50 incubated for 48 hrs by propidium iodide staining based flow cytometry analysis; format: functional
Rh41 [3] = experiment: Induction of cell cycle arrest in human Rh41 cells assessed as accumulation of cells at G2/M phase at 10x IC50 incubated for 24 hrs by propidium iodide staining based flow cytometry analysis relative to control; format: functional
IGF-1R-Sal = experiment: In vivo inhibition of IGF-1R phosphorylation in mouse IGF-1R-Sal cells xenografted in nude mouse at 12.5 mg/kg, po administered for 8 to 24 hrs by Western blotting analysis; format: functional, organism-based; settings: time lower 8.0 hrs, time upper […]
Mus musculus [4] = experiment: Anti-diabetic activity against nude mouse xenografted with mouse IGF-1R-Sal cells assessed as increased serum glucose level at 12.5 mg/kg, po administered for 2 hrs by oral glucose tolerance test (Rvb= 97.40 +/- 5.0 mg/dl); format: functional
Mus musculus [5] = experiment: Anti-diabetic activity against nude mouse xenografted with mouse IGF-1R-Sal cells assessed as insulin level at 25 mg/kg, po administered for 2 hrs by ELISA analysis (Rvb= 0.39 +/- […]); format: functional
[6] = Plasma concentration in nude mouse xenografted with mouse IGF-1R-Sal cells at 3.125 mg/kg, po administered for 2 hrs by LC-MS/MS analysis; format: ADME, organism-based
[7] = Plasma concentration in nude mouse xenografted with mouse IGF-1R-Sal cells at 12.5 mg/kg, po administered for 2 hrs by LC-MS/MS analysis; format: ADME, organism-based
[8] = Antitumor activity against mouse IGF-1R-Sal cells xenografted in nude mouse assessed as tumor growth inhibition at 6.25 to 150 mg/kg, po administered for 4 days relative to control; format: functional; settings: dose 6.25-150 mg/kg, time 4 day
Rh41 [9] = experiment: Antitumor activity against human Rh41 cells xenografted in nude mouse assessed as tumor growth inhibition at 3.1 to 25 mg/kg, po administered for 14 days relative to control; format: functional; settings: dose 3.1-25 mg/kg, time 14 day
GEO [10] = experiment: Antitumor activity against human GEO cells xenografted in nude mouse assessed as tumor growth inhibition at 25 mg/kg, po administered for 17 days relative to control; format: functional; settings: 408 h, time 17 day, read-out: TGI
GEO [11] = experiment: Antitumor activity against human GEO cells xenografted in nude mouse assessed as tumor growth inhibition at 12.5 mg/kg, po administered for 17 days relative to control; format: functional; settings: 408 h, time 17 day, read-out: TGI
GEO [12] = experiment: Antitumor activity against human GEO cells xenografted in nude mouse assessed as tumor growth inhibition at 12.5 mg/kg, po administered for 3 days in presence of cetuximab at 0.25 mg/kg relative to control; format: functional; settings: 72 h, time 3 day, read-out: TGI
GEO [13] = experiment: Antitumor activity against human GEO cells xenografted in nude mouse assessed as tumor growth inhibition at 6.25 mg/kg, po administered for 3 days in presence of cetuximab at 0.25 mg/kg relative to control; format: functional; settings: 72 h, time 3 day, read-out: TGI
GEO [14] = experiment: Antitumor activity against human GEO cells xenografted in nude mouse assessed as tumor growth inhibition at 25 mg/kg, po administered for 3 days in presence of cetuximab at 0.125 mg/kg relative to control; format: functional; settings: 72 h, time 3 day, read-out: TGI
GEO [15] = experiment: Antitumor activity against human GEO cells xenografted in nude mouse assessed as tumor growth delay time at 6.25 mg/kg, po administered for 17 days relative to control; format: functional; settings: time 17 day
GEO [16] = experiment: Antitumor activity against human GEO cells xenografted in nude mouse assessed as tumor growth delay time at 12.5 mg/kg, po administered for 3 days in presence of cetuximab at 0.25 mg/kg relative to control; format: functional; settings: time 3 day
GEO [17] = experiment: Antitumor activity against human GEO cells xenografted in nude mouse assessed as tumor growth delay time at 12.5 mg/kg, po administered for 3 days in presence of cetuximab at 0.125 mg/kg relative to control; format: functional; settings: time 3 day
GEO [18] = experiment: Antitumor activity against human GEO cells xenografted in nude mouse assessed as tumor growth delay time at 6.25 mg/kg, po administered for 3 days in presence of cetuximab at 0.125 mg/kg relative to control; format: functional; settings: time 3 day
[19] = Toxicity in nude mouse xenografted with human GEO cells assessed as body weight loss at 6.25 mg/kg, po administered for 17 days; format: organism-based; settings: in vivo, 408 h, time 17 day
[20] = Toxicity in nude mouse xenografted with human GEO cells assessed as body weight loss at 12.5 mg/kg, po administered for 3 days in presence of cetuximab at 0.25 mg/kg relative to control; format: organism-based; settings: in vivo, 72 h, time 3 day
[21] = Toxicity in nude mouse xenografted with human GEO cells assessed as body weight loss at 6.25 mg/kg, po administered for 3 days in presence of cetuximab at 0.25 mg/kg relative to control; format: organism-based; settings: in vivo, 72 h, time 3 day
[22] = Toxicity in nude mouse xenografted with human GEO cells assessed as body weight loss at 25 mg/kg, po administered for 3 days in presence of cetuximab at 0.125 mg/kg relative to control; format: organism-based; settings: in vivo, 72 h, time 3 day
[23] = Toxicity in nude mouse xenografted with human GEO cells assessed as mortality at 25 mg/kg, po administered for 17 days relative to control; format: organism-based; settings: in vivo, time 17 day
[24] = Toxicity in nude mouse xenografted with human GEO cells assessed as mortality at 12.5 mg/kg, po administered for 17 days relative to control; format: organism-based; settings: in vivo, time 17 day
[25] = Toxicity in nude mouse xenografted with human GEO cells assessed as mortality at 6.25 mg/kg, po administered for 17 days relative to control; format: organism-based; settings: in vivo, time 17 day
[26] = Toxicity in nude mouse xenografted with human GEO cells assessed as mortality at 12.5 mg/kg, po administered for 3 days in presence of cetuximab at 0.25 mg/kg relative to control; format: organism-based; settings: in vivo, time 3 day
[27] = Toxicity in nude mouse xenografted with human GEO cells assessed as mortality at 6.25 mg/kg, po administered for 3 days in presence of cetuximab at 0.25 mg/kg relative to control; format: organism-based; settings: in vivo, time 3 day
[28] = Toxicity in nude mouse xenografted with human GEO cells assessed as mortality at 6.25 mg/kg, po administered for 3 days in presence of cetuximab at 0.125 mg/kg relative to control; format: organism-based; settings: in vivo, time 3 day
RD1 = experiment: Antitumor activity against human RD1 cells xenografted in nude mouse assessed as tumor growth inhibition at 50 mg/kg, po administered for 14 days relative to control; settings: 336 h, read-out: TGI
Rh41 [29] = experiment: Induction of cell cycle arrest in human Rh41 cells assessed as accumulation of cells at sub-G1 phase at 10x IC50 incubated for 24 hrs by propidium iodide staining based flow cytometry analysis (reference value: […])

SMILES: C[C@@]1(C(=O)Nc2ccc(F)nc2)CCCN1c1nc(Nc2cc(C3CC3)n[nH]2)c2cccn2n1 [BMS-754807]
- IC50 (GTL 16 cell line): 200 nM
- Activity (Rh41 [1]): Active
- Activity (Rh41 [2]): Active
- Activity (Rh41 [3]): 2.8%
- inhibition (IGF-1R-Sal): Active
- Activity (Mus musculus [4]): 89 mg/dL
- Activity (Mus musculus [5]): 17.2 ng/mL
- concentration at 2 h [6]: 7 nM
- concentration at 2 h [7]: 29 nM
- TGI [8]: 67%
- TGI (Rh41 [9]): 65%
- inhibition in vivo at 25 mg/kg (GEO [10]): 61%
- inhibition in vivo at 12.5 mg/kg (GEO [11]): 38%
- inhibition in vivo at 12.5 mg/kg (GEO [12]): 88%
- inhibition in vivo at 6.25 mg/kg (GEO [13]): 86%
- inhibition in vivo at 25 mg/kg (GEO [14]): 89%
- Time (GEO [15]): 3 days
- Time (GEO [16]): 38 days
- Time (GEO [17]): 30 days
- Time (GEO [18]): 20 days
- Activity [19]: -0.4 g
- Activity [20]: 1.2 g
- Activity [21]: 1.4 g
- Activity [22]: 0.6 g
- mortality at 408 h [23]: 0%
- mortality at 408 h [24]: 0%
- mortality at 408 h [25]: 0%
- mortality at 72 h [26]: 0%
- mortality at 72 h [27]: 0%
- mortality at 72 h [28]: 0%
- inhibition in vivo at 50 mg/kg (RD1): 58%
- Activity (Rh41 [29]): 23.1%
